Source: patent publication US20060112446A1, “Transposon genes of rice, transformed plant and method of use” (priority 2001, published 2006)

How the values were obtained:
[1] = system: transposon gene with the nucleotide sequence of Sequence Number 3 in scutellum-derived calli; assay: PCR detection of deletion (transposition) of the autonomous transposon gene in scutellum-derived calli treated with 5-azacytidine (Example 9); assay type: cell-based, rice (Oryza sativa), cultivar Nihonbare; conditions: for The frequency of deletion (calli with deletion/calli examined) / The frequency of deletion (percent): scutellum-derived Nihonbare calli, 2 weeks growth culture
Experimental: In this example, we examined the transposition activity of the nucleotide sequence of Sequence Number 3 in anther-derived calli and in scutellum-derived calli treated with 5-azacytidine.
Seeds of Nihonbare, a rice cultivar, were sterilized in3% sodium hypochlorite solution for 15˜30 min, washed with sterilized water, inoculated on a 90×20 mm of Petri dish (Iwaki Co.) with 20˜30 ml of media at the rate of 9 seeds per dish and subjected to induction culture under light for 24 h at 30° C. Used was a solid medium consisting of 4 g of CHU (N6) BASAL SALT MIXTURE® (Sigma Co.), 1 ml of MS VITAMIN SOLUTION® (Sigma Co.), 2 mg of 2,4-dichloro-phenoxyacetic acid (Sigma Co.), 0.3 g of casamino acids (DIFCO), 0.1 g of myo-inositol (Sigma Co.), 2.878 g proline (Wako), 30 g of sucrose (Wako), 2 g of GELRITE® (Wako) in 1 L of medium. On the 10th day of inductive culture, the calli derived from induced seeds were transferred to a growth medium supplemented with 5-azacytidine (Sigma) at 0 mM, 0.1 mM or 0.5 mM and were subjected to growth culture underlight for 24 h at 33° C. Used was a solid medium consisting of 4 g of CHU (N6) BASAL SALT MIXTURE® (Sigma Co.), 1 ml of MS VITAMIN SOLUTION® (Sigma Co.), 2 mg of 2,4-dichloro-phenoxyacetic acid (Sigma Co.), 0.3 g of casamino acids (DIFCO), 0.1 g of myo-inositol (Sigma Co.), 2.878 g proline (Wako), 30 g of sucrose (Wako), 2 g of GELRITE® (Wako) in 1 L of medium. DNA was extracted from calli derived from seeds in growth culture for two weeks by DNEASY PLANT MINI KIT® (Qiagen).
To amplify the DNA region containing the transposon DNA by PCR, we used the oligonucleotides comprising the sequences of Sequence Numbers 26 and 27 as PCR primers. Each reaction mixture (100 μl) contained 200 ng of DNA, 2.5 units of TAKARA LA TAQ® (Takara Co.), 10 μl of 10× LA PCR bufferII, 6 µl of 25 mM MgCl2, 8 μl of dNTP Mixture (2.5mM each dNTP) and 100 pmol of primers. Each cycle of the polymerase reaction consisted of a denaturation step at 94° C. for 30 sec and an extension step at 68° C. for 12 min. This cycle was repeated 35 times. After the reaction, PCR products were separated on 0.8% LO3 AGAROSE® (Takara Co.) gel electrophoresis.

[2] = system: transposon gene (430 bp, Sequence Number 1) in calli derived from Nihonbare seeds; assay: PCR detection of deletion (transposition) of the nonautonomous transposon gene in seed-derived calli grown on 5-azacytidine medium (Example 5); assay type: cell-based, rice (Oryza sativa), cultivar Nihonbare
Experimental: Seeds of Nihonbare were sterilized in 3% sodium hypochlorite solution for 15˜30 min, washed with sterilized water, inoculated on a 90×20 mm of Petri dish (Iwaki Co.) containing 20˜30 ml of media at the rate of 9 seeds per dish and subjected to induction culture under light for 24 h at 30° C. We used a solid medium consisting of 4 g of CHU (N6) BASAL SALT MIXTURE® (Sigma Co.), 1 ml of MS VITAMIN SOLUTION® (Sigma Co.), 2 mg of 2,4-dichloro-phenoxyacetic acid (Sigma Co.), 0.3 g of casamino acids (DIFCO), 0.1 g of myo-inositol (Sigma Co.), 2.878 g proline (Wako), 30 g of sucrose (Wako), 2 g of Gelrite® (Wako) in 1 L of medium.
After several days, calli were started forming from scutellum inside rice seeds and changed to cream-colored ones with 5 mm length on the 10th day of culture. The creamy-colored calli with 5mm length were transplanted to growth media supplemented with 5-azacytidine (Sigma Co.) at either 0 mM, 0.01 mM, 0.03 mM, 0.05 mM, 0.1 mM or 0.3 mM, respectively, and subjected to growth culture under light for 24 h at 30° C. We used a solid medium consisting of 4 g of CHU (N6) BASAL SALT MIXTURE® (Sigma Co.), 1 ml of MS VITAMIN SOLUTION® (Sigma Co.), 2 mg of 2, 4-dichloro-phenoxyacetic acid (Sigma Co.), 0.3 g of casamino acids (DIFCO), 0.1 g of myo-inositol (Sigma Co.), 2.878 g proline (Wako), 30 g of sucrose (Wako), 2 g of GELRITE® (Wako) in 1 L of medium. […]

## Nc1ncn([C@@H]2O[C@H](CO)[C@@H](O)[C@H]2O)c(=O)n1 [5-azacytidine]
[1]; 0.1 mM 5-azacytidine
  The frequency of deletion (calli with deletion/calli examined): 2/8
  The frequency of deletion (percent): (25%)
[1]; 0.5 mM 5-azacytidine
  The frequency of deletion (calli with deletion/calli examined): 7/8
  The frequency of deletion (percent): (87.5%)
[1]; scutellum-derived calli treated with 5-azacytidine
  Transposition of the transposon gene of Sequence Number 3: high frequency of transposition
[2]; seed-derived Nihonbare calli, 0.03 mM-0.3 mM 5-azacytidine in growth medium, 2 weeks growth culture
  DNA bands in PCR of the region containing the transposon gene (approx. 300 bp band = transposon gene deleted): Two DNA bands of approximately 730 bp and 300 bp were observed
[2]; seed-derived calli, 5-azacytidine treatment
  Induction of transposition of the transposon gene: could be induced even for seed-derived calli
